Experimental data published in patent publication US6740680B1, “Pharmaceutical compositions to tetrac and methods of use thereof” (Becton Pharma, Inc., priority 1999, dated 2004).

Assays:
Type in all cases: in vivo, rat
Monodeiodinase type 1 = Monodeiodinase type 1 activity in liver and heart homogenates of infused rats
Method: (§1) Seventy-nine male SIVZ rats were purchased from the breeder (Institut für Labortierkunde des Universität Zürich, Zürich, Switzerland). They were rendered hypothyroid by a single injection of [^131I]Na (100 μCi/rat) and before and throughout the experiment 0.02% 2-mercapto-1-methylimidazol (MMI) was added to drinking water. In order to have an euthyroid control group of similar weight and identical age, 10 rats received only MMI in the drinking water and 2 weeks before implanting the minipumps, MMI was withdrawn. Osmotic minipumps (secretion rate 0.25 μl/hour, duration 14 days) were implanted intraperitoneally (i.p.) 2 months after the injection of [^131I]Na. The minipumps were filled with T4 or Tetrac dissolved in 0.05 N NaOH, 2% BSA and 100,000 cpm [^125I]T4 or [^125I]Tetrac as control of their secretion rates. The infusion lasted 13 days. 0, 1.5, 4.5, 13.5 and 40.5 nmol Tetrac/day/100 g or 0.5, 1.5, 4.5 and 13.5 nmol T4/day/100 g bodyweight (BW) (n=4/dose) were infused. An euthyroid control group was included. The animals were weighed every 2 days. Rats were sacrificed by decapitation and blood was collected and stored at […] until use. Tissues (liver, heart, brown adipose tissue, cerebral cortex and pituitary) were removed rapidly, frozen in liquid nitrogen and stored at […] until use.
Monodeiodinase type 1 and 2 activities. Monodeiodinase type 1 and type 2 activities were determined in tissue homogenates by measuring the release of radioiodide from [^125I]rT3 according to the method of Leonard and Rosenberg (Leonard, J. L. et al. Endocrinology (1980) 106: 444-451).
Monodeiodinase type 1 activity was measured in liver homogenates using 1 μM rT3 and 1 mM DTT with 10 min of incubation, whereas for heart, 0.01 μM rT3 and 10 mM DTT with 1 hour of incubation. Monodeiodinase type 2 activity was measured in brown adipose tissue (BAT) and cerebral cortex using 1 nM rT3, 10 mM DTT and 1 mM propylthiouracil (PTU) with 1 hour of incubation. Protein concentrations were measured by the method of Bradford (Bio-Rad Laboratories GmbH, Munich, Germany) with bovine gammaglobulin as the protein standard. In order to study the effect of circulating Tetrac on the enzyme activities, 2 rats were injected intraperitoneally with 10 μCi ^125I Tetrac and killed 6 hours later. The tissue homogenates were extracted with 3 volumes of ethanol-NH3 (97:3). After 10 minutes centrifugation at 15,000 g, the supernatant was vacuum dried and applied to TLC (Merck 254, Toluol, acetic acid, water: 2:2:1). In order to calculate the tissue concentrations, the highest serum Tetrac levels were used (406 pmol/ml). The calculated tissue concentrations were: liver: 1.9, heart: 2.29 and brain cortex: 0.47 fluol Tetrac/μg protein.

[1] = tested on: monodeiodinase type 1 mRNA; assay: Northern blot, hepatic monodeiodinase type 1 mRNA; details: Liver
Method: as §1
(§2) Total RNA extraction and Northern Blot hybridization Total RNA was extracted with the method of Chomczynski and Sacchi (Chomczynski, P. and Sacchi, N. Anal. Biochem. (1987) 162: 156-159). […]
(§3) The amount of labeled mRNA was quantified by scanning laser densitometry (Phosphorimager, Molecular Dynamics; Sunnyvale, USA). Variations in RNA loading and membrane transfer were corrected by densitometric quantification of a negative photograph of 28S and 18S ribosomal RNA bands from ethidium bromide stained RNA gels. […]

α-MHC mRNA = assay: Northern blot, α-MHC mRNA in heart; details: infused rats, adjusted group mean at the mean Ln (TSH) concentration
Method: as §1, §2, §3

β-MHC mRNA = assay: Northern blot, β-MHC mRNA in heart
Method: as §1, §2, §3

[2] = infused rats, adjusted group mean at the mean Ln (TSH) concentration

O=C(O)Cc1cc(I)c(Oc2cc(I)c(O)c(I)c2)c(I)c1 [Tetrac, 3,3′,5,5′-tetraiodothyroacetic acid] was tested, and the “Residual Monodeiodinase type 1 activity, Tetrac/T4 (activity of Tetrac in % of T4)” value (Monodeiodinase type 1; Liver, at equal serum TSH concentration) was 59%, the “Residual Monodeiodinase type 1 activity, adjusted mean” value (Monodeiodinase type 1; Liver, infused rats, adjusted group mean at the mean Ln (TSH) concentration) was 106 and the “Cardiac monodeiodinase type 1 activity, response to increasing doses (in words)” value (Monodeiodinase type 1; heart, FIG. 2a, compared to T4, p<0.001) was “weak response”. The “Residual Monodeiodinase type 1 mRNA, Tetrac/T4 (activity of Tetrac in % of T4)” value ([1]; at equal serum TSH concentration) was 49%, the “Residual Monodeiodinase type 1 mRNA, adjusted mean” value [1, 2] was 2.48 arbitrary units and the “α-MHC mRNA, adjusted mean” value (α-MHC mRNA) was 5.3 arbitrary units. The “β-MHC mRNA, Tetrac/T4 (activity of Tetrac in % of T4)” value (β-MHC mRNA) was 66% and the “β-MHC mRNA, adjusted mean” value (β-MHC mRNA; [2]) was 328 arbitrary units.
